Tests used:
[1] = Localized in vivo 1H MRS of parietal white matter and occipital gray matter (1.5T) for cytidine levels; conditions: brain cytidine-containing metabolites, brain water as internal reference
Description: All MRI scans and localized in vivo ^1H MRS procedures are performed on a system equipped with shielded gradients (GE 1.5T Signa; General Electric Medical Systems; Milwaukee, Wis.) from 9 PM to midnight. Spectroscopy is performed following a routine brain MRI analysis, and the T2-weighted images are used for localization of an area of interest. […]
The major metabolites detectable in ^1H MRS are CDP choline, cytidine, cytidine 5′-monophosphate (CMP), cytidine 5′-diphosphate (CDP), cytidine 5′-triphosphate (CTP), deoxycytidine 5′-monophosphate (dCMP), deoxycytidine 5′-diphosphate (dCDP), deoxycytidine 5′-triphosphate (dCTP). […] The areas under the peaks is measured by Lorenzian line-shape fitting. The absolute concentrations of CDP choline, cytidine, cytidine 5′-monophosphate (CMP), cytidine 5′-diphosphate (CDP), cytidine 5′-triphosphate (CTP), deoxycytidine 5′-monophosphate (dCMP), deoxycytidine 5′-diphosphate (dCDP), deoxycytidine 5′-triphosphate (dCTP) is calculated from the processed spectrum using the brain water as an internal reference. All concentrations are expressed as millimoles per weight of uridine taken. The reference brain water signals used is fixed in the PWM and in the OGM, as calculated.

[2] = Localized 13C MRS measurement of in vivo 13C cytidine in brain (9.4 T); conditions: in vivo 13C brain cytidine content, external reference method
Description: All in vivo MRS studies are performed in a horizontal 9.4-T/31-cm magnet (Magnex Scientific, UK) with an 11-cm-diameter gradient coil capable of switching to 300 mT/m in 500 μs, interfaced with an INOVA console (Varian Inc., Calif., USA). A quadrature ^1H radiofrequency (RF) 14-mm-diameter coil and a linear polarized, three-turn 11-mm-diameter ^13C RF coil are used as the transceiver. A sphere containing 99% ^13C-enriched glucose (Glu) is located at the center of the ^13C coil as an external reference, and the coil is placed on the subject's head. Fast Automatic Shimming Technique by Mapping Along Projections (FASTMAP) shimming with echo-planar imaging (EPI) readout is applied to adjust B0 field homogeneity in a initially nominal ˜440 μL volume of interest (VOI). The Single-shot Inversion Recovery based Non-Echo (SIRENE) sequence is applied for 3D localization with optimized outer volume suppression to ensure elimination of signals from noncerebral tissue, and bilevel WALTZ-16 RF pulses are applied at the water frequency for generation of a nuclear Overhauser effect (NOE) and for decoupling during acquisition.
Twelve 64-scan localized ^13C MR spectra (repetition time (TR)=1 s) acquired and are summed, apodized by 20-Hz exponential line-broadening, zero-filled, and Fourier transformed. […] In vivo ^13C brain cytidine content ([^13C-Cyt]invivo) is calculated.

[3] = 1H-MRS of the hippocampus (3T, PRESS), metabolite ratios to administered uridine; format: in vivo; conditions: brain cytidine-containing metabolites (CDP choline, cytidine, CMP, CDP, CTP, dCMP, dCDP, dCTP) as ratio of administered uridine, left and right hippocampus
Description: MRI and ^1H-MRS are performed on a 3T scanner. Anatomical MR images are obtained in the coronal plane using a 3D magnetization-prepared rapid gradient echo (MPRAGE) sequence. The sequence is acquired with a field of view of 16 cm, 32 slices with a 3-mm slice thickness, 256×256 matrix size 600-msec inversion time, repetition time (TR) of 8 msec, echo time (TE) of 3 msec, a bandwidth of 32 kHz, and 1 excitation. These images are used to select graphically the left and right hippocampus for solvent suppressed ^1H-MRS. Single-voxel ^1H-MRS of the hippocampus is performed using point-resolved spectroscopy (PRESS). […]
Analysis is performed on the main metabolites detected by MRS, that is, CDP choline, cytidine, cytidine 5′-monophosphate (CMP), cytidine 5′-diphosphate (CDP), cytidine 5′-triphosphate (CTP), deoxycytidine 5′-monophosphate (dCMP) , deoxycytidine 5′-diphosphate (dCDP), deoxycytidine 5′-triphosphate (dCTP), all expressed as a ratio of the administered uridine (Ur). When modeling the overall correlation between the administered uridine or uridine source and metabolite ratios, the measurements of metabolite ratios from the hippocampus on both sides of the brain of each subject analyzed by using repeated measures, with a compound symmetry covariance structure, to account for the within subject correlation.

Measured: increase in metabolite ratio as a function of administered uridine or uridine source

O=c1ccn([C@@H]2O[C@H](CO)[C@@H](O)[C@H]2O)c(=O)[nH]1 [uridine]
direct correlation: [1] | [2] | [3]

Source: patent US8551452B2, “Uridine dietary supplementation compliance methods and use thereof” (Massachusetts Institute of Technology, priority 2007, dated 2013)
